Data from patent US7109338B2, “1,2-disubstituted 1,4-dihydro-4-oxoquinoline compounds” (priority 1999, dated 2006).
≈ marks a conversion by molar mass, not a printed value. Read-outs that look alike come from different tables or passages of the source.

How the values were obtained:
HRV36 (342H) = assay: Anti-rhinovirus spectrum (MTT), HRV36; format: cell-based, human rhinovirus; conditions: Table VII, rhinovirus serotype HRV36
[1] = system: coxsackievirus type B4 (CB4,JVB); assay: In vitro anti-picornavirus activity (MTT), CB4; format: cell-based; conditions: HeLa cells, MTT method, 37° C.
HRV50(A2#58) = assay: Anti-rhinovirus spectrum (MTT), HRV50; format: cell-based, human rhinovirus
HRV33 (1200) = assay: Anti-rhinovirus spectrum (MTT), HRV33; format: cell-based, human rhinovirus; conditions: Table VII, rhinovirus serotype HRV33
HRV 2 (HGP) = assay: Anti-rhinovirus activity (MTT), HRV2; format: cell-based, human rhinovirus; set-up: Anti-Rhinovirus activity, HRV2: unit not given here
[2] = Cytotoxicity (MTT, without virus), HeLa; conditions: human, HeLa cells (uninfected)
HRV16 (11757) = assay: Anti-rhinovirus spectrum (MTT), HRV16; format: cell-based, human rhinovirus; conditions: Table VII, rhinovirus serotype HRV16
HRV 89 (41617-Gallo) = assay: Anti-rhinovirus activity (MTT), HRV89; format: cell-based, human rhinovirus; set-up: Anti-Rhinovirus activity, HRV89: unit not given here
[3] = system: Poliovirus type 1 (Polio 1, Sabin); assay: microbe, parasite or virus in culture; format: cell-based
[4] = Cytotoxicity (MTT, without virus), HeLa(Ohio); conditions: human, HeLa (Ohio strain) cells (uninfected)
[5] = system: human rhinovirus type 1B (HRV 1B, B632); assay: Anti-rhinovirus activity (MTT), HRV1B; format: cell-based; set-up: Anti-Rhinovirus activity, HRV1B: unit not given here
HRV3(FEB) = assay: Anti-rhinovirus spectrum (MTT), HRV3; format: cell-based, human rhinovirus; conditions: Table VII, rhinovirus serotype HRV3
HRV29 (5582) = assay: Anti-rhinovirus spectrum (MTT), HRV29; format: cell-based, human rhinovirus; conditions: Table VII, rhinovirus serotype HRV29
HRV14 (1059) = assay: Anti-rhinovirus activity (MTT), HRV14; format: cell-based, human rhinovirus; conditions: Table VII, rhinovirus serotype HRV14
HRV41 (56110) = assay: Anti-rhinovirus spectrum (MTT), HRV41; format: cell-based, human rhinovirus; conditions: Table VII, rhinovirus serotype HRV41
HRV1A (E28) = assay: Anti-rhinovirus activity (MTT), HRV1A; format: cell-based, human rhinovirus
[6] = system: clinical isolate (89229T); assay: microbe, parasite or virus in culture; format: cell-based, human rhinovirus; conditions: Table VII, clinical isolate (89229T)
HRV8(MRH) = assay: Anti-rhinovirus spectrum (MTT), HRV8; format: cell-based, human rhinovirus; conditions: Table VII, rhinovirus serotype HRV8
HRV5 = assay: Anti-rhinovirus spectrum (MTT), HRV5; format: cell-based, human rhinovirus; conditions: Table VII, rhinovirus serotype HRV5
HRV10 (204-CV14) = assay: Anti-rhinovirus spectrum (MTT), HRV10; format: cell-based, human rhinovirus; conditions: Table VII, rhinovirus serotype HRV10
HRV32 (363) = assay: Anti-rhinovirus spectrum (MTT), HRV32; format: cell-based, human rhinovirus; conditions: Table VII, rhinovirus serotype HRV32
[7] = system: echovirus type 11 (Echo 11, Gregory); assay: In vitro anti-picornavirus activity (MTT), Echo 11; format: cell-based; conditions: HeLa-S3 cells, MTT method, 37° C.
HRV21 (47) = assay: Anti-rhinovirus spectrum (MTT), HRV21; format: cell-based, human rhinovirus; conditions: Table VII, rhinovirus serotype HRV21
HRV39 (209) = assay: Anti-rhinovirus spectrum (MTT), HRV39; format: cell-based, human rhinovirus; conditions: Table VII, rhinovirus serotype HRV39
HRV61 (6669-CV39) = assay: Anti-rhinovirus spectrum (MTT), HRV61; format: cell-based, human rhinovirus; conditions: Table VII, rhinovirus serotype HRV61
[8] = Cytotoxicity (MTT, without virus), HeLa-S3; conditions: human, HeLa-S3 cells (uninfected)
HRV31 (41F) = assay: Anti-rhinovirus spectrum (MTT), HRV31; format: cell-based, human rhinovirus; conditions: Table VII, rhinovirus serotype HRV31
[9] = system: coxsackievirus type A7 (CA7); assay: In vitro anti-picornavirus activity (MTT), CA7; format: cell-based; conditions: HeLa-S3 cells, MTT method, 37° C.
HRV13 (353) = assay: Anti-rhinovirus spectrum (MTT), HRV13; format: cell-based, human rhinovirus; conditions: Table VII, rhinovirus serotype HRV13
[10] = system: Human rotavirus (HROV, Odelia); assay: In vitro anti-rotavirus activity (plaque reduction), HRoV; format: cell-based; conditions: MA104 cells, four days after infection
Description: (§1) Human rotavirus (HROV, Odelia) and simian rotavirus (SRoV, SA11) were used in this experiment. Confluent monolayers of MA104 cells in 6-well multiplate were washed with Eagle MEM containing 0.5 μg/ml of trypsin and were infected with tripsinized-rotavirus (treated with 10 μg/ml of tripsin at 37° C. for 1.5 hr) at 50 PFU per well. After 1 hr of adsorption, the virus inoculum was removed, and the monolayers were washed with Eagle MEM containing 0.5 μg/ml of trypsin and overlaid with Eagle MEM containing 1 μg/ml of trypsin, 0.6% purified agar and the test compounds at various concentrations. The cultures were incubated at 37° C. for 3 days and same overlay medium was added. Four days after infection, the cell sheets were washed with PBS and stained with 1.3% crystal violet in 95% ethanol. The antiviral efficacy of the compounds was expressed as the IC50, that is the concentration of the compounds required to reduce the number of plaques to 50% in the control (virus-infected, but […]).

HeLa cells = assay: Cytotoxicity (MTT, without virus), HeLa; conditions: HeLa, no virus, incubated for 4 days
HeLa (Ohio strain)cells = assay: Cytotoxicity (MTT, without virus), HeLa(Ohio); conditions: HeLa(Ohio), no virus, incubated for 4 days
[11] = system: simian rotavirus (SRoV, SA11); assay: In vitro anti-rotavirus activity (plaque reduction), SRoV; format: cell-based; conditions: MA104 cells, four days after infection
Description: as §1

HeLa-S3 cells = assay: Cytotoxicity (MTT, without virus), HeLa-S3; conditions: HeLa-S3, no virus, incubated for 4 days
[12] = HeLa (Ohio strain) cells, MTT method, 33° C.

For `Cc1c(-c2ccccc2)n(-c2ccccc2)c2ccc(C(C)C)cc2c1=O` [Compound A320, 1,2-Diphenyl-3-methyl-6-isopropyl-1,4-dihydro-4-oxoquinoline], the IC50 (HRV36 (342H); Enterovirus) was 0.082 mg/L (≈ 0.232 µM), the IC50 ([1]; Coxsackievirus) was > 5 mg/L and the IC50 (HRV50(A2#58); Enterovirus, HRV50, read-out: Anti-rhinovirus activity HRV50) was 0.02 mg/L (≈ 0.0566 µM). For the same compound, the IC50 (HRV33 (1200); Enterovirus) was 0.23 mg/L (≈ 0.651 µM), the IC50 (HRV 2 (HGP); Enterovirus, Table VII, rhinovirus serotype HRV2, read-out: Anti-rhinovirus activity HRV2) was 0.051 mg/L (≈ 0.144 µM) and the IC50 (HRV 2 (HGP); Human rhinovirus sp., HRV2, HeLa (Ohio strain) cells, MTT method, 33° C., read-out: IC50 HRV2) was 0.051 mg/L (≈ 0.144 µM). For the same compound, the CC50 at 4 days [2] was > 5 mg/L, the IC50 (HRV16 (11757); Enterovirus) was 0.023 mg/L (≈ 0.0651 µM) and the IC50 (HRV 89 (41617-Gallo); Enterovirus, Table VII, rhinovirus serotype HRV89, read-out: Anti-rhinovirus activity HRV89) was 0.051 mg/L (≈ 0.144 µM). For the same compound, the IC50 (HRV 89 (41617-Gallo); Human rhinovirus sp., HRV89, HeLa (Ohio strain) cells, MTT method, 33° C., read-out: IC50 HRV89) was 0.051 mg/L (≈ 0.144 µM), the IC50 ([3]; Enterovirus C, HeLa S3, read-out: IC50 Polio 1) was > 5 mg/L and the CC50 at 4 days [4] was > 5 mg/L. The IC50 ([5]; Human rhinovirus sp., HRV1B, HeLa (Ohio strain) cells, MTT method, 33° C., read-out: IC50 HRV1B) was 0.12 mg/L (≈ 0.339 µM), the IC50 ([5]; Table VII, rhinovirus serotype HRV1B, read-out: Anti-rhinovirus activity HRV1B) was 0.12 mg/L (≈ 0.339 µM) and the IC50 (HRV3(FEB); Enterovirus) was > 5 mg/L. The IC50 (HRV29 (5582); Enterovirus) was 0.079 mg/L (≈ 0.224 µM), the IC50 (HRV14 (1059); Enterovirus, read-out: Anti-rhinovirus activity HRV14) was > 5 mg/L and the IC50 (HRV41 (56110); Enterovirus) was 0.066 mg/L (≈ 0.187 µM). The IC50 (HRV1A (E28); Enterovirus, HRV1A, read-out: Anti-rhinovirus activity HRV1A) was > 5 mg/L, the IC50 ([6]; Human rhinovirus sp., read-out: Anti-rhinovirus activity Clinically isolated strain) was 0.017 mg/L (≈ 0.0481 µM) and the IC50 (HRV8(MRH); Enterovirus) was > 5 mg/L. The IC50 (HRV5; Enterovirus) was > 5 mg/L, the IC50 (HRV10 (204-CV14); Enterovirus) was 0.021 mg/L (≈ 0.0594 µM) and the IC50 (HRV32 (363); Enterovirus) was 0.051 mg/L (≈ 0.144 µM). For the same compound, the IC50 ([7]; Enterovirus B) was 0.15 mg/L (≈ 0.424 µM), the melting point was 225 °C and the IC50 (HRV21 (47); Enterovirus) was 0.024 mg/L (≈ 0.0679 µM). The IC50 (HRV39 (209); Enterovirus) was < 0.017 mg/L, the IC50 (HRV61 (6669-CV39); Enterovirus) was 0.21 mg/L (≈ 0.594 µM) and the CC50 at 4 days [8] was > 5 mg/L. For the same compound, the IC50 (HRV31 (41F); Enterovirus) was 0.046 mg/L (≈ 0.13 µM), the IC50 ([9]; Coxsackievirus) was > 5 mg/L and the IC50 (HRV13 (353); Enterovirus) was 0.23 mg/L (≈ 0.651 µM).

For `Cc1c(-c2ccccc2)n(-c2ccc(F)cc2)c2ccc(C(C)C)cc2c1=O` [Compound A323], the “Anti-Rhinovirus activity, HRV36” value (HRV36 (342H)) was 0.13, the “IC50 CB4” value [1] was >2 mg/L and the “Anti-Rhinovirus activity, HRV50” value (HRV50(A2#58); Table VII, rhinovirus serotype HRV50) was 0.038. For the same compound, the “Anti-rotavirus activity IC50 HRoV(Odelia)” value [10] was 1.30 mg/L, the “Anti-Rhinovirus activity, HRV33” value (HRV33 (1200)) was 0.30 and the “IC50 HRV2” value (HRV 2 (HGP); [12]) was 0.038 mg/L (≈ 0.102 µM). For the same compound, the “Anti-Rhinovirus activity, HRV2” value (HRV 2 (HGP); Table VII, rhinovirus serotype HRV2) was 0.038, the “Cytotoxicity CC50 HeLa” value (HeLa cells) was >2 mg/L and the “Anti-Rhinovirus activity, HRV16” value (HRV16 (11757)) was 0.033. For the same compound, the “IC50 HRV89” value (HRV 89 (41617-Gallo); [12]) was 0.011 mg/L (≈ 0.0296 µM), the “Anti-Rhinovirus activity, HRV89” value (HRV 89 (41617-Gallo); Table VII, rhinovirus serotype HRV89) was 0.011 and the “IC50 Polio 1” value [3] was >2 mg/L. The “Cytotoxicity CC50 HeLa(Ohio)” value (HeLa (Ohio strain)cells) was >2 mg/L, the “IC50 HRV1B” value [5, 12] was 0.27 mg/L (≈ 0.727 µM) and the “Anti-Rhinovirus activity, HRV1B” value ([5]; Table VII, rhinovirus serotype HRV1B) was 0.27. The “Anti-Rhinovirus activity, HRV3” value (HRV3(FEB)) was >2.0, the “Anti-Rhinovirus activity, HRV29” value (HRV29 (5582)) was 0.11 and the “Anti-Rhinovirus activity, HRV14” value (HRV14 (1059)) was >2.0. For the same compound, the “Anti-Rhinovirus activity, HRV41” value (HRV41 (56110)) was 0.058, the “Anti-Rhinovirus activity, HRV1A” value (HRV1A (E28); Table VII, rhinovirus serotype HRV1A, same method as above) was >2.0 and the “Anti-rhinovirus activity Clinically isolated strain” value [6] was 0.030. The “Anti-Rhinovirus activity, HRV8” value (HRV8(MRH)) was >2.0, the “Anti-Rhinovirus activity, HRV5” value (HRV5) was >2.0 and the “Anti-Rhinovirus activity, HRV10” value (HRV10 (204-CV14)) was 0.032. For the same compound, the “Anti-Rhinovirus activity, HRV32” value (HRV32 (363)) was 0.077, the “IC50 Echo 11” value [7] was >2 mg/L and the “Anti-Rhinovirus activity, HRV21” value (HRV21 (47)) was 0.067. The “Anti-rotavirus activity IC50 SRoV(SA11)” value [11] was 0.90 mg/L, the “Anti-Rhinovirus activity, HRV39” value (HRV39 (209)) was 0.018 and the “Anti-Rhinovirus activity, HRV61” value (HRV61 (6669-CV39)) was 0.30. For the same compound, the “Cytotoxicity CC50 HeLa-S3” value (HeLa-S3 cells) was >2 mg/L, the “Anti-Rhinovirus activity, HRV31” value (HRV31 (41F)) was 0.088 and the “IC50 CA7” value [9] was >2 mg/L. For the same compound, the “Anti-Rhinovirus activity, HRV13” value (HRV13 (353)) was 0.12.
